Measured values taken from patent US20090215895A1, “Therapeutic and carrier molecules” (PEPLIN BIOLIPIDS PTY LTD, priority 2004, published 2009).

Legend:
HUVEC = test: Agonist-enhanced neutrophil adherence to HUVEC; type: cell-based, human; details: for Inhibition of TNF-α-enhanced neutrophil adhesion to HUVEC: 20 μmol/l, 1 hr pre-treatment, TNF 4 hr
Procedure, shortened: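 HUVEC were pre-treated 60 min at 37° C. with fatty acids (20 μmol/l), stimulated with TNF (125 U/200 μl) for 4 hr, then co-incubated 30 min with neutrophils (5×10^5 cells/well). Adherence expressed as % of control, mean±SEM of three triplicate experiments.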

ICAM-1 = test: Adhesion molecule expression on HUVEC (ELISA); type: cell-based, human; details: for Suppression of TNF-α-induced ICAM-1 expression on HUVEC: 60 min pre-treatment
Experimental: (§1) FIG. 13 is a representation showing effect of MP3 (β-oxa-23:4n-6) and 20:4n-6 on time-related changes in TNF-α-induced E-selectin, ICAM-1 and VCAM-1 expression on HUVEC. HUVEC were pre-treated with 20 μmol/l β-oxa-23:4n-6 (closed triangles), 20 μmol/l 20:4n-6 (open squares), or DPC (control) for 60 min and then further incubated with TNF-α (125 U/200 μl medium) for up to 24 hr. The expression of E-selectin, ICAM-1 and VCAM-1 adhesion molecules was determined by ELISA. The results are expressed as % of control and represent the mean±SEM of three separate experiments each performed in triplicate. * p<0.05, **p<0.01, ***p<0.001, for significant differences between pre-treatment with fatty acid and corresponding control at a particular time point (one-way analysis of variance followed by the Dunnett test for multiple comparisons). Inset: The effect of β-oxa-23:4n-6 on TNF-α-induced expression of E-selectin mRNA in HUVEC. HUVEC were pre-incubated with β-oxa-23:4n-6 (20 μmol/l) or DPC (control) in 1 ml of medium at 37° C. for 60 min. After the addition of TNF-α, the cells were further incubated at 37° C. for 2 hr. E-selectin mRNA expression was then determined and the results expressed as relative %. Results are the mean±SEM of three separate experiments each performed in quadruplicate. *p<0.0001, for significant differences between pre-treatment with β-oxa-23:4n-6, and control (two-tailed Student's t-test for unpaired data).
(§2) HUVEC were stimulated with TNF, bacterial lipopolysaccharide (LPS) or PMA for 24 hr. Expression of E-selectin, ICAM-1 and VCAM-1 was determined by an enzyme-linked immunosorbent assay (ELISA) or as mRNA using a slot blot technique (Huang et al 1997 supra).

VCAM-1 = test: Adhesion molecule expression on HUVEC (ELISA); type: cell-based, human; details: for Suppression of TNF-α-induced VCAM-1 expression on HUVEC: 60 min pre-treatment
Experimental: as §1, §2

IκBα = test: TNF-induced degradation of IκBα in HUVEC (Western blot); type: cell-based; details: Homo sapiens, 20 μmol/l, 30 min pre-treatment, TNF 10 min
Experimental: FIG. 17 is a representation showing (A) the effect of MP3 (β-oxa 23:4n-6) and DHA on TNF-induced degradation of IκBα in HUVEC. Cells were pre-treated with the fatty acids (20 μmol/l) for 30 min and then stimulated with TNF (125 U/ml) for 10 min. After cell lysis the proteins were analyzed by Western blots using anti-IκBα antibodies. (B) The effects of β-oxa-23:4n-6 on TNF-induced activation of transcriptional factor, NFκB in HUVEC. Cells were pre-treated with β-oxa-23:4n-6 (20 μmol/l) for 30 min and then stimulated with TNF for 2 hr. After cell lysis, nuclear fractions were prepared, nuclear proteins separated by SDS PAGE (12% w/v gel), transferred to nitrocellulose and probed with an anti-NFκB p65 antibody (Santa Cruz). […] (C) The effect of β-oxa 23:4n-6 on TNF-stimulated activation of IKK. Cells were pre-treated with β-oxa 23:4n-6 (20 μmol/l) for 30 min and then stimulated with TNF for 5 min. After cell lysis IKK was immunoprecipitated with anti-IKKα antibody and kinase activity determined. […]
Proteins (50 μg) were separated by SDS PAGE (12% w/v gel), transferred to nitrocellulose and probed with an anti-NFκB p65 or anti-IκBα antibody (Santa Cruz Biotech, Santa Cruz, Calif.). Immunocomplexes were detected by enhanced chemiluminescence (Hii et al, 1998 supra).

IKK = test: TNF-stimulated activation of IKK in HUVEC (immunoprecipitation kinase assay); type: cell-based, human; details: 20 μmol/l, 30 min, TNF 5 min
Experimental: FIG. 17 is a representation showing (A) the effect of MP3 (β-oxa 23:4n-6) and DHA on TNF-induced degradation of IκBα in HUVEC. Cells were pre-treated with the fatty acids (20 μmol/l) for 30 min and then stimulated with TNF (125 U/ml) for 10 min. After cell lysis the proteins were analyzed by Western blots using anti-IκBα antibodies. (B) The effects of β-oxa-23:4n-6 on TNF-induced activation of transcriptional factor, NFκB in HUVEC. Cells were pre-treated with β-oxa-23:4n-6 (20 μmol/l) for 30 min and then stimulated with TNF for 2 hr. After cell lysis, nuclear fractions were prepared, nuclear proteins separated by SDS PAGE (12% w/v gel), transferred to nitrocellulose and probed with an anti-NFκB p65 antibody (Santa Cruz). […] (C) The effect of β-oxa 23:4n-6 on TNF-stimulated activation of IKK. Cells were pre-treated with β-oxa 23:4n-6 (20 μmol/l) for 30 min and then stimulated with TNF for 5 min. After cell lysis IKK was immunoprecipitated with anti-IKKα antibody and kinase activity determined.
IKK was immunoprecipitated with anti-IKKα (M-280) antibody (sc-7182, Santa Cruz, Biotech) and kinase activity determined using GST-IκBA (residues 5-55) as previously described (Lee et al, 1998 supra). Proteins were fractionated by SDS PAGE and radioactivity associated with GST-IκBα (residues 5-55) determined using an instant imager.

[1] = 20 μmol/l, listed as β-oxa-23:4n-6

Question: Which results are given for `CCCCC/C=C\C/C=C\C/C=C\C/C=C\CCCCOCC(=O)O` [MP3, β-oxa-23:4n-6]?
Answer: Inhibition of LPS- or PMA-induced neutrophil adhesion to HUVEC (HUVEC): inhibited the increase in neutrophil adhesion; Inhibition of TNF-α-enhanced neutrophil adhesion to HUVEC (HUVEC): greatest suppression; Inhibition of TNF-α-enhanced neutrophil adhesion to HUVEC (HUVEC; listed as β-oxa 23:4n-6): most active; Inhibition of TNF-α-enhanced neutrophil adhesion to HUVEC (HUVEC; listed as β-oxa-23:4n-6): inhibited their ability to be stimulated; Concentration with significant suppression of TNF-α-induced neutrophil adhesion (HUVEC; pre-treatment time of 1 hr): ≥ 5 µmol/L; Suppression of TNF-α-induced ICAM-1 expression on HUVEC (ICAM-1; 20 μmol/l): better than docosahexaenoic acid (22:6n-3) at suppressing; Suppression of TNF-α-induced ICAM-1 expression on HUVEC (ICAM-1; [1]): inhibited the expression; Time of cytokine treatment at maximum inhibition of ICAM-1 expression (ICAM-1; 20 μmol/l, TNF-α): 6 h; Inhibition of LPS and PMA-induced up-regulation of ICAM-1 (ICAM-1; HUVEC): inhibited LPS and PMA-induced, up-regulation; Suppression of TNF-α-induced VCAM-1 expression on HUVEC (VCAM-1; 20 μmol/l): better than docosahexaenoic acid (22:6n-3) at suppressing; Suppression of TNF-α-induced VCAM-1 expression on HUVEC (VCAM-1; [1]): inhibited the expression; Time of cytokine treatment at maximum inhibition of VCAM-1 expression (VCAM-1; 20 μmol/l, TNF-α): 12 h; Inhibition of LPS and PMA-induced up-regulation of VCAM-1 (VCAM-1; HUVEC): inhibited LPS and PMA-induced, up-regulation; inhibition at 20 µM (IκBα): > 92%; TNF-stimulated activation of IKK / IκB kinase-NFκB signalling pathway (IKK): inhibits the ability of TNF to activate; TNF-stimulated activation of IKK / IκB kinase-NFκB signalling pathway (IKK; listed as β-oxa 23:4n-6): significantly inhibited
